Source: patent publication US8017649B2, “Flavonoid compounds and uses thereof” (Howard Florey Institute of Experimental Physiology and …, priority 2005, dated 2011)
“Also recorded” adds a separate entry of the source.

Tests used:
[1] = test system: anaesthetised sheep; assay: Myocardial ischaemia and reperfusion injury in anaesthetised sheep; format: in vivo; settings: higher dose: DiOHF3HA 6.7 mg/kg, DiOHF 5 mg/kg i.v.; 1 h ischaemia, 3 h reperfusion
[2] = test system: endothelium-intact (EI) aortic rings; assay: PE-induced contraction of rat aortic rings; format: cell-based
Procedure: Rings were incubated for 20 minutes with DiOHF3HA at a range of concentrations (10^−7-10^−4 M) or vehicle (0.1% dimethyl sulphoxide, DMSO). A concentration response curve to PE (10^−9-10^−5 M) in endothelium-intact (EI) aortic rings was then performed. Experiments were conducted in the presence and absence of BuCHE (1000 U/L) to cleave the adipate in DiOHF3HA.

[3] = test system: endothelium intact aortic rings; assay: Ca2+-induced contraction of rat aortic rings in Ca2+-free high-K+ solution; format: cell-based
Procedure: To determine the effect of flavonoids on responses to the influx of extracellular Ca^2+, contractile responses to exogenous application of Ca^2+ were examined in the presence of flavonoids in Ca^2+-free high-K^+ solution (60 mM, KPSS). Aortic rings were initially equilibrated at a resting tension of 1 g in normal Ca^2+-free PSS for 45 minutes. The bath medium was then replaced with Ca^2+-free KPSS for 45 minutes to determine a reference contraction to Ca^2+ (3×10^−3 M). Following a 30 minute re-equilibration period with Ca^2+-free PSS, the cumulative contractile responses to Ca^2+ (10^−5−3×10^−3 M) were determined in KPSS in the presence of a range of concentrations (10^−8-10^−4 M) of vehicle, 3′,4′-dihydroxyflavonol, 3-hydroxyflavone-3-hemiadipate, 3′,4′-dihydroxy-3-hemiadipate, 3-hydroxyflavone-3-phosphate. A 20 minute incubation period was allowed for the flavonoids before examining the responses to Ca^2+.
To determine the effect of flavonoids on responses to the influx of extracellular Ca^2+, contractile responses to exogenous application of Ca^2+ were examined in the presence of flavonoids in Ca^2+-free high-K^+ solution (60 mM, K+-PSS). Aortic rings were initially equilibrated at a resting tension of 1 g in Ca^2+-free PSS for 45 minutes. The bath medium was then replaced with Ca^2+-free K+-PSS for 45 minutes to determine a reference contraction to added Ca^2+ (3 mM). Following a 30 minute re-equilibration period with Ca^2+-free PSS, the cumulative contractile responses to Ca^2+ (10^−5−3×10^−3 M) were determined in K^+ PSS in the presence of vehicle (0.1% DMSO), or a range of concentrations (10^−7-10^−4 M) of 3′-hydroxyflavonol, F3HA, DiOHF3HA or F3P. A 20 minute incubation period was allowed for the flavonoids before examining the responses to Ca^2+. Experiments were conducted in the presence and absence of BuCHE (1000 U/L) to cleave the adipate in F3HA and DiOHF3HA. In experiments using F3P, phosphatase (1000 U/L) was used in some experiments to cleave the phosphate.

[4] = test system: anaesthetised sheep; assay: Myocardial ischaemia and reperfusion injury in anaesthetised sheep; format: in vivo; settings: for infarct size normalized to the area at risk (IS/AR): lower dose: DiOHF3HA 2.7 mg/kg, DiOHF 2 mg/kg i.v.; for effect on infarct size / cardioprotection: i.v. in aqueous solution after 30 min of ischaemia
Procedure: The ability of the synthetic flavonol, 3′,4′ dihydroxy flavonol adipate (DiOHF3HA) to prevent myocardial ischaemia and reperfusion injury in anaesthetised Sheep was assessed.
Five groups of anaesthetised adult merino sheep (35-45 kg wethers) were examined:
Anaesthesia was induced by intravenous thiopentone sodium (15 mg/kg) and following tracheal intubation was maintained by isoflurane (1.5-2%). A catheter was inserted in the right facial artery for arterial blood sampling and monitoring arterial pressure. Intravenous infusions were made via a catheter inserted into the jugular vein. The heart was exposed through a left thoracotomy performed at the fourth intercostal space. A 4F catheter-tipped manometer was inserted through the left atrium into the left ventricle to measure left ventricular pressure (LVP). An additional silastic cannula was inserted into the left atrial appendage for the injection of lignocaine and for infusion of Evans Blue. The left anterior descending coronary artery (LAD) was dissected from the epicardium immediately distal to its second diagonal branch, and a transit-time 2 mm flow probe was placed around it to monitor the LAD blood flow. A silk suture was passed under the LAD proximal to the probe and both ends of the silk were threaded through a plastic tube to form a vascular snare.
The animals were allowed to stabilise for 10-15 minutes after the completion of the surgical procedure. Sheep were then randomly divided into different treatment groups. All sheep had 30 minute baseline recording followed by 1 hour ischaemia and 3 hours reperfusion.
During the course of the experiment, haemodynamic measurements were recorded at 5 minute intervals and blood samples were taken at designated time-points. After 30 minutes of ischaemia, flavonol treatment was administered. DiOHF was dissolved in 2 ml DMSO plus 14 ml polyethylene glycol:water (1:1). DiOHF3HA was dissolved in 20 ml 0.1M Na2CO3. The drugs were given at 1 ml/min i.v. The two doses of DiOHF3HA (2.7 mg/kg and 6.6 mg/kg) were chosen to achieve equivalent molar doses to the parent DiOHF compound (at 2 mg/kg and 5 mg/kg, respectively). […] Lignocaine was used, as required, to ameliorate arrhythmias.
The area of myocardium at risk and infarct size were delineated by Evan's blue and triphenyltetrazolium chloride (TTC) staining. After 3 hours of reperfusion, the LAD was re-occluded at the original occlusion site. Immediately after intravenous injection of pentobarbitone (100 mg kg^−1) to arrest the heart, Evan's blue dye (1.5%, 40 ml) was injected into the left atrium to define the myocardium at risk. The heart was rapidly removed and the left ventricle was sliced into transverse sections about 1 cm thick. The unstained risk area was traced onto the same transparencies. The sections were then incubated in 0.1 M sodium phosphate buffer containing 1% TTC for 20 min (37° C., pH 7.4). The infarcted area was traced onto transparencies. The area of myocardium at risk, and infarct size, were measured by computerised planimetry. The former was expressed as a percentage of total left ventricular volume (AR/LV %) and infarct size was expressed as a percentage of the area of myocardium at risk (IS/AR %).
Arterial blood samples (5 ml) were collected into chilled heparinised tubes at baseline, during ischaemia and at three time points during the reperfusion period (1 hour, 2 hour and 3 hour). Following centrifugation at 4° C., plasma samples were stored at −20° C. until measurement to determine levels of lactate dehydrogenase and creatinine kinase.

Compound: O=c1c(O)c(-c2ccc(O)c(O)c2)oc2ccccc12 [DiOHF, 3′,4′-Dihydroxyflavonol, reference compound]
- infarct size normalized to the area at risk (IS/AR) [1]: 47±8%
- effect on PE-induced contraction ([2]; alone, 0.1 mM): inhibit the response to PE in a concentration dependent manner
- Maximum Contraction (percent 3 mM Ca^2+) ([3]; 10^−4 M, without BuCHE): 18 ± 2 percent 3 mM Ca^2+
- infarct size normalized to the area at risk (IS/AR) [4]: 73%

Compound: O=C(O)CCCCC(=O)Oc1c(-c2ccc(O)c(O)c2)oc2ccccc2c1=O [DiOHF3HA, 3′,4′-dihydroxyflavone-3-hemiadipate]
- infarct size normalized to the area at risk (IS/AR) [1]: 49±8%
- effect on PE-induced contraction ([2]; alone, 0.1 mM): no effect on PE-induced contraction
- effect on PE-induced contraction ([2]; in the presence of esterase (BuCHE)): inhibit the response to PE in a concentration dependent manner; also recorded: marked inhibition
- Maximum Contraction (percent 3 mM Ca^2+) ([3]; 10^−4 M + BuCHE): 35 ± 6 percent 3 mM Ca^2+
- Maximum Contraction (percent 3 mM Ca^2+) ([3]; 10^−4 M, without BuCHE): 101 ± 1 percent 3 mM Ca^2+
- effect on Ca^2+-induced contraction ([3]; alone, highest concentration 10^−4 M): slight Ca2+ inhibitory action
- effect on Ca^2+-induced contraction ([3]; alone, over the concentration range tested): little effect on calcium-induced contraction
- effect on Ca^2+-induced contraction ([3]; in the presence of BuCHE or phosphatase (1000 U/L)): markedly enhanced the inhibitory effect; also recorded: equivalent inhibitory effect to DiOHF; also recorded: inhibit calcium-induced contraction
- regression of LAD flow after reperfusion hyperperfusion ([4]; 6.6 mg/kg vs control): more rapid
- haemodynamic indices (arterial pressure, HR, LV-EDP, dP/dtmax) during infusion ([4]; 20-min i.v. infusion, 6.6 mg/kg): did not alter haemodynamic indices; also recorded: unchanged
- increase in plasma creatine kinase ([4]; after 1 hour ischaemia and 3 hours reperfusion): 1579±936 U/L
- increase in plasma lactate dehydrogenase ([4]; after 1 hour ischaemia and 3 hours reperfusion, n=4): 67±32 U/L
- effect on infarct size / cardioprotection [4]: dose-related reduction in infarct size; also recorded: equivalent degree of cardioprotection to the parent compound
- effect on infarct size / cardioprotection ([4]; listed as Adipate): significant difference in infarct size
- infarct size normalized to the area at risk (IS/AR) [4]: 64%
